From the supplement of paper PMC11451515

Key:
Settings in all cases: 48 h
P12-Ichikawa [1] = test: AUC of viability dose-response curve (% viability x log10 dose units); higher = less sensitive
How it was run: (§1)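 Leukemia cells adapted to each medium were seeded in 1536-well plates (500 or 1000 cells/well) and given library compounds in DMSO for 48 h at 37°C. The 11 threefold doses spanned 47 μM to 0.79 nM, and CellTiter-Glo One luminescence was normalised per plate to DMSO and cell-free wells before four-parameter log-logistic fitting on log10 dose. Area under the curve was integrated with the trapezoidal rule, scaling curves above full viability and removing curves that failed quality control.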

NOMO1 [2] = test: as above
How it was run: as §1

SEM cells [3] = test: as above
How it was run: as §1

P12-Ichikawa [4] = test: cell viability relative to DMSO control; higher = less cytotoxic
How it was run: (§2)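 Viability was expressed as a per-plate percentage of DMSO wells, with cell-free wells as background. Leukemia cells (NOMO1 or SEM at 500 cells/well, P12-Ichikawa at 1000 cells/well) were adapted for at least four passages in each medium and seeded in 1536-well plates (5 μl). Library compounds in DMSO were pin-dosed over an 11-point threefold series from 47 μM to 0.79 nM, and CellTiter-Glo One luminescence was read after 48 h at 37°C.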

NOMO1 [5] = test: as above
How it was run: as §2

SEM cells [6] = test: as above
How it was run: as §2

N#C/C(=C\c1ccc(O)c(O)c1)C(=O)NCc1ccccc1
AUC of viability dose-response curve
Settings	NOMO1 [2]	P12-Ichikawa [1]	SEM cells [3]
HPLM + 10% dialyzed FBS	446	448	447
RPMI 5 mM glucose + 10% FBS	447	436	440
RPMI 5 mM glucose + 10% dialyzed FBS	460	421	440

cell viability [%]
Settings	NOMO1 [5]	P12-Ichikawa [4]	SEM cells [6]
HPLM + 10% dialyzed FBS, 0.000781 µM	103	101	103
HPLM + 10% dialyzed FBS, 0.00234 µM	111	96.5	103
HPLM + 10% dialyzed FBS, 0.00702 µM	124	103	109
HPLM + 10% dialyzed FBS, 0.0211 µM	110	106	113
HPLM + 10% dialyzed FBS, 0.0632 µM	98.6	104	113
HPLM + 10% dialyzed FBS, 0.19 µM	118	106	102
HPLM + 10% dialyzed FBS, 0.569 µM	122	103	93.2
HPLM + 10% dialyzed FBS, 1.71 µM	98.5	100	104
HPLM + 10% dialyzed FBS, 5.12 µM	91.7	102	105
HPLM + 10% dialyzed FBS, 15.4 µM	92.8	68.5	72.8
HPLM + 10% dialyzed FBS, 46.1 µM	64.7	47.4	37.2
RPMI 5 mM glucose + 10% FBS, 0.000781 µM	100	105	103
RPMI 5 mM glucose + 10% FBS, 0.00234 µM	93.2	106	100
RPMI 5 mM glucose + 10% FBS, 0.00702 µM	84.5	101	101
RPMI 5 mM glucose + 10% FBS, 0.0211 µM	93.3	101	105
RPMI 5 mM glucose + 10% FBS, 0.0632 µM	106	103	114
RPMI 5 mM glucose + 10% FBS, 0.19 µM	92.1	94.3	111
RPMI 5 mM glucose + 10% FBS, 0.569 µM	86.7	103	107
RPMI 5 mM glucose + 10% FBS, 1.71 µM	91.3	97.6	112
RPMI 5 mM glucose + 10% FBS, 5.12 µM	96.5	87	96.4
RPMI 5 mM glucose + 10% FBS, 15.4 µM	97.6	68.2	80.2
RPMI 5 mM glucose + 10% FBS, 46.1 µM	89	36.7	9.69
RPMI 5 mM glucose + 10% dialyzed FBS, 0.000781 µM	98	95.2	111
RPMI 5 mM glucose + 10% dialyzed FBS, 0.00234 µM	103	96.1	107
RPMI 5 mM glucose + 10% dialyzed FBS, 0.00702 µM	110	99.5	96.4
RPMI 5 mM glucose + 10% dialyzed FBS, 0.0211 µM	105	97	106
RPMI 5 mM glucose + 10% dialyzed FBS, 0.0632 µM	102	98.7	114
RPMI 5 mM glucose + 10% dialyzed FBS, 0.19 µM	110	88.3	102
RPMI 5 mM glucose + 10% dialyzed FBS, 0.569 µM	99.3	93.1	104
RPMI 5 mM glucose + 10% dialyzed FBS, 1.71 µM	108	94.7	101
RPMI 5 mM glucose + 10% dialyzed FBS, 5.12 µM	89.7	80.3	101
RPMI 5 mM glucose + 10% dialyzed FBS, 15.4 µM	95.4	67.7	69
RPMI 5 mM glucose + 10% dialyzed FBS, 46.1 µM	83.8	41.5	26.4

O=C([O-])C[C@H](O)C[C@H](O)/C=C/c1c(C2CC2)nc2ccccc2c1-c1ccc(F)cc1
AUC of viability dose-response curve
Settings	NOMO1 [2]	P12-Ichikawa [1]	SEM cells [3]
HPLM + 10% dialyzed FBS	443	407	395
RPMI 5 mM glucose + 10% FBS	450	375	418
RPMI 5 mM glucose + 10% dialyzed FBS	440	390	413

cell viability [%]
Settings	NOMO1 [5]	P12-Ichikawa [4]	SEM cells [6]
HPLM + 10% dialyzed FBS, 0.000781 µM	101	107	82.3
HPLM + 10% dialyzed FBS, 0.00234 µM	104	111	73.1
HPLM + 10% dialyzed FBS, 0.00702 µM	130	115	97.5
HPLM + 10% dialyzed FBS, 0.0211 µM	120	110	102
HPLM + 10% dialyzed FBS, 0.0632 µM	125	117	89.1
HPLM + 10% dialyzed FBS, 0.19 µM	116	114	90
HPLM + 10% dialyzed FBS, 0.569 µM	112	110	86.1
HPLM + 10% dialyzed FBS, 1.71 µM	132	103	83.9
HPLM + 10% dialyzed FBS, 5.12 µM	109	69.3	87.4
HPLM + 10% dialyzed FBS, 15.4 µM	87.7	49.1	70
HPLM + 10% dialyzed FBS, 46.1 µM	12	26.2	18.9
RPMI 5 mM glucose + 10% FBS, 0.000781 µM	108	110	99.4
RPMI 5 mM glucose + 10% FBS, 0.00234 µM	116	117	85.2
RPMI 5 mM glucose + 10% FBS, 0.00702 µM	122	116	99.1
RPMI 5 mM glucose + 10% FBS, 0.0211 µM	114	113	97.9
RPMI 5 mM glucose + 10% FBS, 0.0632 µM	111	124	108
RPMI 5 mM glucose + 10% FBS, 0.19 µM	112	116	99.4
RPMI 5 mM glucose + 10% FBS, 0.569 µM	116	105	96.7
RPMI 5 mM glucose + 10% FBS, 1.71 µM	134	87.9	109
RPMI 5 mM glucose + 10% FBS, 5.12 µM	109	52.3	81.6
RPMI 5 mM glucose + 10% FBS, 15.4 µM	97.8	19.5	43.7
RPMI 5 mM glucose + 10% FBS, 46.1 µM	23.7	14.7	10.7
RPMI 5 mM glucose + 10% dialyzed FBS, 0.000781 µM	114	113	99.1
RPMI 5 mM glucose + 10% dialyzed FBS, 0.00234 µM	109	114	81
RPMI 5 mM glucose + 10% dialyzed FBS, 0.00702 µM	110	113	91.7
RPMI 5 mM glucose + 10% dialyzed FBS, 0.0211 µM	122	107	95.9
RPMI 5 mM glucose + 10% dialyzed FBS, 0.0632 µM	116	119	112
RPMI 5 mM glucose + 10% dialyzed FBS, 0.19 µM	119	116	85
RPMI 5 mM glucose + 10% dialyzed FBS, 0.569 µM	129	115	79.6
RPMI 5 mM glucose + 10% dialyzed FBS, 1.71 µM	115	93.6	97.9
RPMI 5 mM glucose + 10% dialyzed FBS, 5.12 µM	101	58.2	94.5
RPMI 5 mM glucose + 10% dialyzed FBS, 15.4 µM	86.4	36.9	69.1
RPMI 5 mM glucose + 10% dialyzed FBS, 46.1 µM	22.9	19.3	13.6
